pEC50, pIC50: −log10 of the molar value. Structures can show the parent of a compound that is named as a salt.
Columns and labels:
THP1/LXR-Luc cells = assay: THP1/LXR-Luc luciferase reporter bioassay; type: cell-based; conditions: Homo sapiens, THP-1, 48 hours; for pEC50: read-out: Activation of THP1/LXR-Luc cells: EC50; for Emax: relative to maximum activation of free payload 9d, read-out: Activation of THP1/LXR-Luc cells: Fold of activation
Text: The fold activation in the cell-based assays (as described in Example 68, below) was defined based on the maximum activation of the free payload 9d.
A bioassay was developed to assess the activity of LXR agonists after internalization of an agonist or of a ncADC into cells and binding to LXR, a nuclear receptor, using a commercially available LXR reporter (referred to as LXR-Luc) that contains the firefly luciferase gene under control by minimal CMV promoter and tandem repeats of the LXR transcriptional response element. For this assay, a THP1 cell line, which is a human monocytic leukaemia line, was engineered to express full length human Her2 (expressing amino acids M1 through V1255 of accession number NP_004439.2). The subsequent stable cell line was further transduced with a Cignal LXR Luc Reporter (Qiagen, Cat # CLS-7041L). The resulting stable cell line is referred to herein as THP1/Her2/LXR-Luc. The Her2 cell surface expression on THP1/Her2/LXR-Luc cell line was confirmed by FACS (data not shown).
Additionally, a THP1 cell line was transduced with a Cignal LXR Luc Reporter (Qiagen, Cat # CLS-7041L) without the addition of Her2. The resulting stable cell line is referred to herein as THP1/LXR-Luc. All of the antibodies used in the subsequent bioassays were assessed for their ability to internalize and release a payload on the bioassay cell line used.
This example assessed the ability of the LXR agonists provided herein, reference compounds, and anti-Her2 antibody-LXR ncADC to activate LXR. The samples were tested in the THP1/LXR-Luc/Her2 bioassay. For the assay, either THP1/LXR-Luc cells or THP1/LXR-Luc/Her2 cells were seeded onto white 96 well plates at 30,000 cells/well in media containing RPMI supplemented with 10% FBS and pencillin/streptomycin (complete media). Subsequently 3-fold serial dilutions of antibody drug conjugates, unconjugated antibodies, or free payloads were added to the cells at final concentration ranging from 100 nM to 0.01 nM. After 48-hour or 72-hour incubation, luciferase activity was determined after the addition of One-Glo™ reagent (Promega, Cat # E6130) to each well of cells. Relative light units (RLUs) were measured on a Victor luminometer (PerkinElmer) and the EC5o values were determined using a four-parameter logistic equation over a 10-point dose response curve (GraphPad Prism) (FIG. 15). The fold activation is calculated based on the maximum activation of the free payload 9d.

LXR beta = molecular target: T1, LXR beta (Homo sapiens, UniProt P55055); assay: LanthaScreen TR-FRET LXR beta Coactivator Assay (cell-free binding); conditions: TR-FRET, 12-point curve; read-out: Cell free binding LXRβ IC50
T1 construct: LXR alpha or beta LBD-GST; purchased ThermoFisher PV4658
T1 sequence (P55055 222-460 limits assumed): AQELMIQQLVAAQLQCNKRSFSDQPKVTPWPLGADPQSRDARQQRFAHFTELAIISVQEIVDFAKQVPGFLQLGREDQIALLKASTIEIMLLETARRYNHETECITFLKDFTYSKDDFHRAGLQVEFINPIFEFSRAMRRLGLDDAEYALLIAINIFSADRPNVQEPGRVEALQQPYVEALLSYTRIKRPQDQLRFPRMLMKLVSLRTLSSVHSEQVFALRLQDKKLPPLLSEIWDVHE
Method: (§1) To evaluate the ability of novel LXR agonists to bind to the LXR alpha and beta receptor, a cell-free binding assay was performed using a LanthaScreen TR-FRET LXR alpha Coactivator Assay Kit (ThermoFisher, Cat # PV4655) and LXR beta Coactivator Assay Kit (ThermoFisher, Cat # PV4658). The assay was performed according to the manufacturer's instructions. Briefly, a 3-fold serial dilution of LXR agonists were prepared in 100% DMSO starting at 100 μM (100× of final). Serial dilutions were further diluted 50-fold in nuclear receptor buffer F with 5 mM DTT, and transferred to a 384-well assay plate. Next, Fluorescein-D22, LXR alpha or beta LBD-GST, and Tb anti-GST antibody was sequentially added to 384-well assay plate. The plate was then incubated at rt for 2.5 hours while being protected from light. […] The IC50 values were determined using a four-parameter logistic equation over a 12-point response curve (GraphPad Prism).

LXR alpha = molecular target: T2, LXR alpha (Homo sapiens, UniProt Q13133); assay: LanthaScreen TR-FRET LXR alpha Coactivator Assay (cell-free binding); conditions: TR-FRET, 12-point curve; read-out: Cell free binding LXRα IC50
T2 construct: LXR alpha or beta LBD-GST; purchased ThermoFisher PV4655
T2 sequence (Q13133 209-447 limits assumed): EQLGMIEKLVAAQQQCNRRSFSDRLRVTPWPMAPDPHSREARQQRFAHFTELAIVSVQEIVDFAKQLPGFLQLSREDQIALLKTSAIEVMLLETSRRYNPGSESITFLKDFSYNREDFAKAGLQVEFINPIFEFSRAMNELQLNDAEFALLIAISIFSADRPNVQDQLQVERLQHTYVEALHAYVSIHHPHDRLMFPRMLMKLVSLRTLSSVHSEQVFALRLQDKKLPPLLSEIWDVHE
Method: as §1

Structure (SMILES): C[C@]1(C(=O)NC(=O)[C@@]2(C)CCC[C@]3(C)c4cc(O)ccc4CC[C@@H]23)CCC[C@]2(C)c3cc(O)ccc3CC[C@@H]12 [Compound 9a, (1S,4aS,10aR)-6-Hydroxy-N-((1S,4aS,10aR)-6-hydroxy-1,4a-dimethyl-1,2,3,4,4a,9,10,10a-octahydrophenanthrene-1-carbonyl)-1,4a-dimethyl-1,2,3,4,4a,9,10,10a-octahydrophenanthrene-1-carboxamide]
- pEC50 (THP1/LXR-Luc cells): 8.00 to 9.00
- Emax (THP1/LXR-Luc cells): > 75%

Structure (SMILES): C[C@]1(C(=O)NC(=O)[C@@]2(C)CCC[C@]3(C)c4cc(OCCO)ccc4CC[C@@H]23)CCC[C@]2(C)c3cc(O)ccc3CC[C@@H]12 [Compound 9b, (1S,4aS,10aR)-6-Hydroxy-N-((1S,4aS,10aR)-6-(2-hydroxyethoxy)-1,4a-dimethyl-1,2,3,4,4a,9,10,10a-octahydrophenanthrene-1-carbonyl)-1,4a-dimethyl-1,2,3,4,4a,9,10,10a-octahydrophenanthrene-1-carboxamide]
- pEC50 (THP1/LXR-Luc cells): 8.00 to 9.00
- Emax (THP1/LXR-Luc cells): > 75%
- pIC50 (LXR beta): > 8.00
- pIC50 (LXR alpha): > 8.00

Structure (SMILES): C[C@]1(C(=O)NC(=O)[C@@]2(C)CCC[C@]3(C)c4cc(OCCN)ccc4CC[C@@H]23)CCC[C@]2(C)c3cc(O)ccc3CC[C@@H]12 [Compound 9c, (1S,4aS,10aR)-6-(2-Aminoethoxy)-N-((1S,4aS,10aR)-6-hydroxy-1,4a-dimethyl-1,2,3,4,4a,9,10,10a-octahydrophenanthrene-1-carbonyl)-1,4a-dimethyl-1,2,3,4,4a,9,10,10a-octahydrophenanthrene-1-carboxamide]
- pEC50 (THP1/LXR-Luc cells): 7.00 to 8.00
- Emax (THP1/LXR-Luc cells): > 75%
- pIC50 (LXR beta): > 8.00
- pIC50 (LXR alpha): 7.00 to 8.00

Structure (SMILES): C[C@]1(C(=O)NC(=O)[C@@]2(C)CCC[C@]3(C)c4cc(N5CCNCC5)ccc4CC[C@@H]23)CCC[C@]2(C)c3cc(O)ccc3CC[C@@H]12 [Compound 9e, (1S,4aS,10aR)—N-((1S,4aS,10aR)-1,4a-Dimethyl-6-(piperazin-1-yl)-1,2,3,4,4a,9,10,10a-octahydrophenanthrene-1-carbonyl)-6-hydroxy-1,4a-dimethyl-1,2,3,4,4a,9,10,10a-octahydrophenanthrene-1-carboxamide]
- pEC50 (THP1/LXR-Luc cells): 8.00 to 9.00
- Emax (THP1/LXR-Luc cells): > 75%
- pIC50 (LXR beta): > 8.00
- pIC50 (LXR alpha): > 8.00

Structure (SMILES): CN(C)c1ccc2c(c1)[C@@]1(C)CCC[C@](C)(C(=O)NC(=O)[C@@]3(C)CCC[C@]4(C)c5cc(O)ccc5CC[C@@H]34)[C@@H]1CC2 [Compound 9f, (1S,4aS,10aR)-6-(Dimethylamino)-N-((1S,4aS,10aR)-6-hydroxy-1,4a-dimethyl-1,2,3,4,4a,9,10,10a-octahydrophenanthrene-1-carbonyl)-1,4a-dimethyl-1,2,3,4,4a,9,10,10a-octahydrophenanthrene-1-carboxamide]
- pEC50 (THP1/LXR-Luc cells): 8.00 to 9.00
- Emax (THP1/LXR-Luc cells): > 75%
- pIC50 (LXR beta): > 8.00
- pIC50 (LXR alpha): > 8.00

Structure (SMILES): C[C@]1(C(=O)NC(=O)[C@@]2(C)CCC[C@]3(C)c4cc(NC(=O)CCN)ccc4CC[C@@H]23)CCC[C@]2(C)c3cc(O)ccc3CC[C@@H]12 [Compound 9i, (1S,4aS,10aR)-6-(3-Aminopropanamido)-N-((1S,4aS,10aR)-6-hydroxy-1,4a-dimethyl-1,2,3,4,4a,9,10,10a-octahydrophenanthrene-1-carbonyl)-1,4a-dimethyl-1,2,3,4,4a,9,10,10a-octahydrophenanthrene-1-carboxamide]
- pEC50 (THP1/LXR-Luc cells): 7.00 to 8.00
- Emax (THP1/LXR-Luc cells): 25 to 75%
- pIC50 (LXR beta): > 8.00
- pIC50 (LXR alpha): > 8.00

Structure (SMILES): CNCC(=O)Nc1ccc2c(c1)[C@@]1(C)CCC[C@](C)(C(=O)NC(=O)[C@@]3(C)CCC[C@]4(C)c5cc(O)ccc5CC[C@@H]34)[C@@H]1CC2 [Compound 9k, (1S,4aS,10aR)—N-((1S,4aS,10aR)-1,4a-Dimethyl-6-(2-(methylamino)acetamido)-1,2,3,4,4a,9,10,10a-octahydrophenanthrene-1-carbonyl)-6-hydroxy-1,4a-dimethyl-1,2,3,4,4a,9,10,10a-octahydrophenanthrene-1-carboxamide; Trifluoroacetic Acid Salt]
- pEC50 (THP1/LXR-Luc cells): 8.00 to 9.00
- Emax (THP1/LXR-Luc cells): > 75%
- pIC50 (LXR beta): > 8.00
- pIC50 (LXR alpha): 7.00 to 8.00

Structure (SMILES): C[C@]1(C(=O)NC(=O)[C@@]2(C)CCC[C@]3(C)c4cc(NC(=O)[C@@H](N)Cc5c[nH]cn5)ccc4CC[C@@H]23)CCC[C@]2(C)c3cc(O)ccc3CC[C@@H]12 [Compound 9m, (1S,4aS,10aR)—N-[(1S,4aS,10aR)-6-Hydroxy-1,4a-dimethyl-1,2,3,4,4a,9,10,10a-octahydrophenanthrene-1-carbonyl]-6-[(2S)-2-amino-3-(1H-imidazol-4-yl)propanamido]-1,4a-dimethyl-1,2,3,4,4a,9,10,10a-octahydrophenanthrene-1-carboxamide; trifluoroacetic acid salt]
- pEC50 (THP1/LXR-Luc cells): 8.00 to 9.00
- Emax (THP1/LXR-Luc cells): > 75%
- pIC50 (LXR beta): > 8.00
- pIC50 (LXR alpha): 7.00 to 8.00

Structure (SMILES): C[C@]1(C(=O)NC(=O)[C@@]2(C)CCC[C@]3(C)c4cc(NC(=O)[C@@H](N)CC(=O)O)ccc4CC[C@@H]23)CCC[C@]2(C)c3cc(O)ccc3CC[C@@H]12 [Compound 9n, (3S)-3-Amino-3-{[(4bS,8S,8aR)-8-{[(1S,4aS,10aR)-6-hydroxy-1,4a-dimethyl-1,2,3,4,4a,9,10,10a-octahydrophenanthrene-1-carbonyl]carbamoyl}-4b,8-dimethyl-4b,5,6,7,8,8a,9,10-octahydrophenanthren-3-yl]carbamoyl}propanoic Acid]
- pEC50 (THP1/LXR-Luc cells): ≥ 9.00
- Emax (THP1/LXR-Luc cells): > 75%
- pIC50 (LXR beta): > 8.00
- pIC50 (LXR alpha): 7.00 to 8.00

Structure (SMILES): C[C@]1(C(=O)NC(=O)[C@@]2(C)CCC[C@]3(C)c4cc(CN)ccc4CC[C@@H]23)CCC[C@]2(C)c3cc(O)ccc3CC[C@@H]12 [Compound 9p, (1S,4aS,10aR)-6-(Aminomethyl)-N-((1S,4aS,10aR)-6-hydroxy-1,4a-dimethyl-1,2,3,4,4a,9,10,10a-octahydrophenanthrene-1-carbonyl)-1,4a-dimethyl-1,2,3,4,4a,9,10,10a-octahydrophenanthrene-1-carboxamide; Trifluoroacetic Acid Salt]
- pEC50 (THP1/LXR-Luc cells): 8.00 to 9.00
- Emax (THP1/LXR-Luc cells): > 75%
- pIC50 (LXR beta): > 8.00
- pIC50 (LXR alpha): 7.00 to 8.00

Structure (SMILES): C[C@]1(CNC(=O)[C@@]2(C)CCC[C@]3(C)c4cc(O)ccc4CC[C@@H]23)CCC[C@]2(C)c3cc(O)ccc3CC[C@@H]12 [Compound 9u, (1S,4aS,10aR)—N-{[(1S,4aS,10aR)-6-Hydroxy-1,4a-dimethyl-1,2,3,4,4a,9,10,10a-octahydrophenanthren-1-yl]methyl}-6-hydroxy-1,4a-dimethyl-1,2,3,4,4a,9,10,10a-octahydrophenanthrene-1-carboxamide]
- pEC50 (THP1/LXR-Luc cells): 8.00 to 9.00
- Emax (THP1/LXR-Luc cells): 25 to 75%

Structure (SMILES): O=S(=O)(c1ccccc1)N(CC(F)(F)F)c1ccc(C(O)(C(F)(F)F)C(F)(F)F)cc1 [Compound T0901317, reference compound]
- pEC50 (THP1/LXR-Luc cells): 7.00 to 8.00
- Emax (THP1/LXR-Luc cells): > 75%

From patent publication US12338199B2, “Bis-octahydrophenanthrene carboxamides and protein conjugates thereof” (REGENERON PHARMACEUTICALS, INC., priority 2017, dated 2025)
